ChEMBL document CHEMBL1125783, “Novel 1-phenylcycloalkanecarboxylic acid derivatives as potential anticonvulsant agents” (1991)
“And” between values parts separate entries of the source, which are not always exact repeats. Equal values may be shown once. The source made the active and inactive calls. The rule behind the calls is not given here.

System: Rattus norvegicus
Assay: Anticonvulsant activity in rats using MES (maximal electroshock) after subcutaneous administration
Type: functional
Conditions: sc

Which ED50 does the source give for CCN(CC)CCOCCOC(=O)C1(c2ccccc2)CCCC1 [CARBETAPENTANE] here?
The ED50 was 25 mg/kg and 48 µmol/kg.

Which ED50 does the source give for CCN(CC)CCOCCOC(=O)C1(c2ccccc2)CCCCC1 here?
Its ED50 is 93 mg/kg and 173 µmol/kg.

For CCN(CC)CCOCCOCC1(c2ccccc2)CCCCC1, which ED50 is on record?
The ED50 was 37 mg/kg.

For O=C1NC(=O)C(c2ccccc2)(c2ccccc2)N1 [PHENYTOIN], which ED50 is on record?
Its ED50 is 8 mg/kg.

For CCN(CC)CCOCCOCC1(c2ccccc2)CCCC1, which ED50 is on record?
The ED50 was 7 mg/kg and 16 µmol/kg.

System: Rattus norvegicus
Assay: Anticonvulsant activity in rats using MES (maximal electroshock) after subcutaneous administration; IA-Inactive up to dose of 50 mg/kg
Type: functional, organism-based
Parameters: dose 50 mg/kg
Conditions: not given

Which ED50 does the source give for CCN(CC)CCOCCN(C)CC1(c2ccccc2)CCCC1 here?
The ED50 was “inactive”.

CCN(CC)CCOCCNC(=O)C1(c2ccccc2)CCCC1 was tested. Which ED50 did it give?
Its ED50 is “inactive”.

For CCN(CC)CCOCCNCC1(c2ccccc2)CCCC1, which ED50 is on record?
The ED50 was “inactive”.

Which ED50 does the source give for CCN(CC)CCOCCNC(=O)C1(c2ccccc2)CCCCC1 here?
Its ED50 is “inactive”.

With CCN(CC)CCOCCNCC1(c2ccccc2)CCCCC1 as the compound, how does the ED50 read?
The ED50 was “inactive”.

System: Rattus norvegicus
Assay: Anticonvulsant activity in rats, using MES(maximal electroshock), after subcutaneous administration.
Type: functional
Conditions: sc

With CCN(CC)CCOCCOCC1(c2ccccc2)CCCCC1 as the compound, how does the ED50 read?
The ED50 was 86 µmol/kg.

How did the ED50 turn out when O=C1NC(=O)C(c2ccccc2)(c2ccccc2)N1 [PHENYTOIN] was run?
The ED50 was 30 µmol/kg.
